Test results: PubChem BioAssay AID248 (DTP/NCI, 2004)
Values joined by “and” are separate entries in the source; they are usually repeats but may differ in a detail not shown here. Equal entries are not always repeated. Inconclusive results and toxic doses are left out. Rule as the data show it: active = T/C of 150% or more; inactive = T/C below 125%.

Test system: L1210 leukemia ip in BDF1 mice, survival T/C
Assay: NCI In Vivo Anticancer Drug Screen. Data for tumor model L1210 Leukemia (intraperitoneal) in B6D2F1 (BDF1) mice
Details: endpoint: mean survival time, higher = longer survival
Outline: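 Read-out is survival time, reported as the treated-group measurement over the vehicle-control measurement.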

[1] = dose: 100.0 mg/kg/injection, schedule: Q01DX009 (ip), vehicle: saline with Tween-80
[2] = dose: 100.0 mg/kg/injection, schedule: Q04DX003 (ip), vehicle: saline with Tween-80
[3] = dose: 200.0 mg/kg/injection, schedule: Q01DX009 (ip), vehicle: saline with Tween-80
[4] = dose: 200.0 mg/kg/injection, schedule: Q04DX003 (ip), vehicle: saline with Tween-80
[5] = dose: 400.0 mg/kg/injection, schedule: Q01DX009 (ip), vehicle: saline with Tween-80
[6] = dose: 400.0 mg/kg/injection, schedule: Q04DX003 (ip), vehicle: saline with Tween-80
[7] = dose: 100.0 mg/kg/injection, schedule: Q01DX001 (ip), vehicle: saline
[8] = dose: 100.0 mg/kg/injection, schedule: Q01DX009 (ip), vehicle: Klucel (hydroxypropylcellulose) (HPC)
[9] = dose: 100.0 mg/kg/injection, schedule: Q04DX003 (ip), vehicle: Klucel (hydroxypropylcellulose) (HPC)
[10] = dose: 200.0 mg/kg/injection, schedule: Q01DX009 (ip), vehicle: Klucel (hydroxypropylcellulose) (HPC)
[11] = dose: 200.0 mg/kg/injection, schedule: Q04DX003 (ip), vehicle: Klucel (hydroxypropylcellulose) (HPC)
[12] = dose: 400.0 mg/kg/injection, schedule: Q01DX009 (ip), vehicle: Klucel (hydroxypropylcellulose) (HPC)
[13] = dose: 400.0 mg/kg/injection, schedule: Q04DX003 (ip), vehicle: Klucel (hydroxypropylcellulose) (HPC)
[14] = dose: 100.0 mg/kg/injection, schedule: Q01DX001 (ip), vehicle: saline with Tween-80
[15] = dose: 200.0 mg/kg/injection, schedule: Q01DX001 (ip), vehicle: saline with Tween-80
[16] = dose: 100.0 mg/kg/injection, schedule: Q01DX001 (ip), vehicle: carboxymethylcellulose (CMC)
[17] = dose: 200.0 mg/kg/injection, schedule: Q01DX001 (ip), vehicle: carboxymethylcellulose (CMC)
[18] = dose: 400.0 mg/kg/injection, schedule: Q01DX001 (ip), vehicle: carboxymethylcellulose (CMC)

Measured: T/C

CC(=O)N1C(=O)N(Cl)C(=O)C1(C)c1cccs1 (stereo not given)
inactive: [1] 107 % of control | [2] 105 % of control | [3] 101 % of control | [4] 103 % of control | [5] 93 % of control | [6] 106 % of control

O=C(Nc1ccc([N+](=O)[O-])cc1)Oc1c(Cl)cc(Cl)c(Cl)c1[N+](=O)[O-]
inactive: dose: 25.0 mg/kg/injection, schedule: Q04DX002 (ip), vehicle: Klucel (hydroxypropylcellulose) (HPC) 112 % of control | dose: 50.0 mg/kg/injection, schedule: Q04DX002 (ip), vehicle: Klucel (hydroxypropylcellulose) (HPC) 97 % of control | dose: 100.0 mg/kg/injection, schedule: Q04DX002 (ip), vehicle: Klucel (hydroxypropylcellulose) (HPC) 94 % of control and 90 % of control

C[Se](=O)O.[Pb]
inactive: dose: 3.13 mg/kg/injection, schedule: Q01DX001 (ip), vehicle: saline with Tween-80 98 % of control | dose: 6.25 mg/kg/injection, schedule: Q01DX001 (ip), vehicle: saline with Tween-80 98 % of control | dose: 12.5 mg/kg/injection, schedule: Q01DX001 (ip), vehicle: saline with Tween-80 88 % of control

CC[n+]1c(COCCOc2ccccc2)sc2cc3c(cc21)OCO3
inactive: [7] 101 % of control

Cc1[nH]c2ccccc2c1C(Cc1ccccc1N)c1c(C)[nH]c2ccccc12
inactive: dose: 50.0 mg/kg/injection, schedule: Q01DX001 (ip), vehicle: saline 101 % of control | [7] 104 % of control | dose: 200.0 mg/kg/injection, schedule: Q01DX001 (ip), vehicle: saline 101 % of control | dose: 400.0 mg/kg/injection, schedule: Q01DX001 (ip), vehicle: saline 104 % of control

Cc1cccc(OC(=O)NC2CCCCC2)c1
inactive: [8] 118 % of control | [9] 102 % of control | [10] 114 % of control | [11] 95 % of control | [12] 106 % of control | [13] 96 % of control

C=CCN(CC=C)C(=S)NC(=O)c1ccccc1
inactive: [8] 110 % of control | [10] 104 % of control

COc1cc(OC)c([N+](=O)[O-])cc1Cl
inactive: [8] 96 % of control | [9] 96 % of control | [10] 96 % of control | [11] 93 % of control | [12] 92 % of control | [13] 94 % of control

COC(=O)NC1CC(OC(=O)c2ccc(C)cc2)C(COC(=O)c2ccc(C)cc2)O1 (stereo not given)
inactive: dose: 50.0 mg/kg/injection, schedule: Q04DX003 (ip), vehicle: saline with Tween-80 96 % of control | dose: 66.0 mg/kg/injection, schedule: Q04DX003 (ip), vehicle: saline 94 % of control | [2] 97 % of control | dose: 100.0 mg/kg/injection, schedule: Q04DX003 (ip), vehicle: saline 100 % of control | dose: 150.0 mg/kg/injection, schedule: Q04DX003 (ip), vehicle: saline 95 % of control | [4] 100 % of control | dose: 225.0 mg/kg/injection, schedule: Q04DX003 (ip), vehicle: saline 95 % of control | dose: 337.0 mg/kg/injection, schedule: Q04DX003 (ip), vehicle: saline 103 % of control | [6] 96 % of control

CCCN(C(=O)c1cccc([N+](=O)[O-])c1)C(c1ccco1)P(=O)(c1ccccc1)c1ccccc1 (stereo not given)
inactive: dose: 50.0 mg/kg/injection, schedule: Q01DX001 (ip), vehicle: saline with Tween-80 101 % of control | [14] 101 % of control | [1] 100 % of control and 90 % of control | dose: 100.0 mg/kg/injection, schedule: Q04DX002 (ip), vehicle: saline with Tween-80 98 % of control | [15] 106 % of control | [3] 87 % of control | dose: 200.0 mg/kg/injection, schedule: Q04DX002 (ip), vehicle: saline with Tween-80 102 % of control | dose: 400.0 mg/kg/injection, schedule: Q04DX002 (ip), vehicle: saline with Tween-80 93 % of control and 88 % of control

c1ccc(CNCCCNCc2ccccn2)nc1
inactive: dose: 50.0 mg/kg/injection, schedule: Q01DX009 (ip), vehicle: saline with Tween-80 93 % of control | [1] 98 % of control

COc1ccc(N=C=S)cc1N=C=S
inactive: dose: 6.25 mg/kg/injection, schedule: Q01DX009 (ip), vehicle: saline with Tween-80 101 % of control | dose: 12.5 mg/kg/injection, schedule: Q01DX009 (ip), vehicle: saline with Tween-80 103 % of control | dose: 25.0 mg/kg/injection, schedule: Q01DX009 (ip), vehicle: saline with Tween-80 104 % of control

CSc1nccc(NN=C2CCCCC2)n1
inactive: dose: 100.0 mg/kg/injection, schedule: Q01DX001 (ip), vehicle: Klucel (hydroxypropylcellulose) (HPC) 98 % of control | [8] 96 % of control | dose: 200.0 mg/kg/injection, schedule: Q01DX001 (ip), vehicle: Klucel (hydroxypropylcellulose) (HPC) 94 % of control | [10] 98 % of control | dose: 400.0 mg/kg/injection, schedule: Q01DX001 (ip), vehicle: Klucel (hydroxypropylcellulose) (HPC) 91 % of control

O=C(O)C1(c2ccccc2)OCCO1
inactive: [1] 95 % of control | [3] 94 % of control | [5] 95 % of control

O=C1CC(Cc2n[nH]c3c2CCCC3)CC(=O)N1
inactive: [16] 100 % of control | [17] 95 % of control | [18] 95 % of control

CCCCCCNC(=O)NC
inactive: [8] 97 % of control | [10] 103 % of control

O=CN/N=C/c1ccc2c(c1)CCC2
inactive: [1] 97 % of control | [3] 102 % of control | [5] 98 % of control

[O-]/[N+](=N/O)c1ccccc1
inactive: [7] 92 % of control

CC(C)(Br)C(=O)c1ccc(Cl)s1
inactive: [2] 96 % of control | [4] 107 % of control | [6] 105 % of control

O=C(Nc1cccc2ccccc12)OCCCl
inactive: [16] 93 % of control | [17] 90 % of control | [18] 95 % of control

CCc1cccc2ccccc12
inactive: dose: 50.0 mg/kg/injection, schedule: Q04DX003 (ip), vehicle: Klucel (hydroxypropylcellulose) (HPC) 100 % of control | [8] 90 % of control | [9] 98 % of control | [10] 92 % of control | [11] 107 % of control | [12] 96 % of control | [13] 96 % of control

O=c1ccc2cc3ccc(=O)oc3cc2o1
inactive: [14] 97 % of control | [15] 97 % of control | dose: 400.0 mg/kg/injection, schedule: Q01DX001 (ip), vehicle: saline with Tween-80 87 % of control

CCOC(=O)N/N=C/c1ccccc1OC
inactive: dose: 75.0 mg/kg/injection, schedule: Q01DX001 (ip), vehicle: saline 90 % of control | dose: 150.0 mg/kg/injection, schedule: Q01DX001 (ip), vehicle: saline 90 % of control | dose: 300.0 mg/kg/injection, schedule: Q01DX001 (ip), vehicle: saline 96 % of control

O=[N+]([O-])c1ccc(O)c(N=Cc2ccc(C=Nc3cc([N+](=O)[O-])ccc3O)cc2)c1
inactive: [8] 95 % of control and 86 % of control | [10] 97 % of control | [12] 103 % of control and 90 % of control

N#Cc1c(N)nc2ccccc2[n+]1[O-]
inactive: dose: 50.0 mg/kg/injection, schedule: Q01DX009 (ip), vehicle: Klucel (hydroxypropylcellulose) (HPC) 94 % of control | [8] 97 % of control | [10] 100 % of control
